Laboratory results taken from ChEMBL document CHEMBL1201862, “PubChem BioAssay data set” (2004).
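Protocol summary: plate cells (96-well), add compound at 5 concentrations, incubate 48 h, interpolate endpoints linearly. Here, GI50 denotes the concentration required for 50% inhibition of growth.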 Active and inactive are the calls of the source. Rule as the data show it: active = GI50 up to about 1.1 µM and inactive = higher.

What was measured:
Test in all cases: inhibition of tumour cell growth, NCI panel, 48 h
ACHN = tested on: ACHN
CAKI-1 = tested on: CAKI-1
CCRF-CEM = tested on: CCRF-CEM
EKVX = tested on: EKVX
HCT-15 = tested on: HCT-15
HOP-62 = tested on: HOP-62
HOP-92 = tested on: HOP-92
HT-29 = tested on: HT-29
Hs-578T = tested on: Hs-578T
MCF7 = tested on: MCF7
MDA-N = tested on: MDA-N
Malme-3M = tested on: Malme-3M
NCI-H460 = tested on: NCI-H460
SF-539 = tested on: SF-539
SK-MEL-5 = tested on: SK-MEL-5
SN12C = tested on: SN12C
SNB-19 = tested on: SNB-19
SR = tested on: SR
SW-620 = tested on: SW-620
UO-31 = tested on: UO-31

Compound	GI50 (ACHN)	GI50 (CAKI-1)	GI50 (CCRF-CEM)	GI50 (EKVX)	GI50 (HCT-15) [µM]	GI50 (HOP-62)	GI50 (HOP-92)	GI50 (HT-29)	GI50 (Hs-578T)	GI50 (MCF7)	GI50 (MDA-N)	GI50 (Malme-3M)	GI50 (NCI-H460)	GI50 (SF-539)	GI50 (SK-MEL-5)	GI50 (SN12C)	GI50 (SNB-19)	GI50 (SR)	GI50 (SW-620)	GI50 (UO-31)
O=C(O)CS(=O)(=O)C(c1ccccc1)c1ccccc1	> 100 µM (inactive)	> 100 µM (inactive)	> 100 µM (inactive)	> 100 µM (inactive)	> 100	> 100 µM (inactive)	> 100 µM (inactive)	> 100 µM (inactive)	> 100 µM (inactive)	> 100 µM (inactive)	> 100 µM (inactive)	> 100 µM (inactive)	> 100 µM (inactive)	> 100 µM (inactive)	> 100 µM (inactive)	> 100 µM (inactive)	> 100 µM (inactive)	> 100 µM (inactive)	> 100 µM (inactive)	> 100 µM (inactive)
Cc1cc(Cl)ccc1Nc1nc2c(s1)C(=O)c1ccccc1C2=O	3.98 µM (inactive)	6.3 µM (inactive)	2.18 µM (inactive)	9.04 µM (inactive)	1.85	5.13 µM (inactive)	13.9 µM (inactive)	18.3 µM (inactive)	2.39 µM (inactive)	1.87 µM (inactive)	0.604 µM (active)	1.45 µM (inactive)	3.32 µM (inactive)	3.39 µM (inactive)	1.82 µM (inactive)	1.8 µM (inactive)	4.75 µM (inactive)	2.8 µM (inactive)	1.94 µM (inactive)	4.45 µM (inactive)
O=C(Nc1cccc(C(F)(F)F)c1)O/N=C(/Cl)CCl	> 100 µM (inactive)	> 100 µM (inactive)	30.2 µM (inactive)	> 100 µM (inactive)	46.3	> 100 µM (inactive)	22 µM (inactive)	51.9 µM (inactive)	> 100 µM (inactive)	21.6 µM (inactive)	71.8 µM (inactive)	> 100 µM (inactive)	> 100 µM (inactive)	> 100 µM (inactive)	40.7 µM (inactive)	56 µM (inactive)	> 100 µM (inactive)	22.6 µM (inactive)	38.5 µM (inactive)	> 100 µM (inactive)
CC1=NN(c2nc(N)nc(NS(=O)(=O)c3cc(C)c(Cl)cc3S)n2)C(C)(C)C1	> 10 µM (inactive)	> 10 µM (inactive)	> 10 µM (inactive)	> 10 µM (inactive)	> 10	> 10 µM (inactive)	> 10 µM (inactive)	> 10 µM (inactive)	> 10 µM (inactive)	> 10 µM (inactive)	> 10 µM (inactive)	> 10 µM (inactive)	> 10 µM (inactive)	> 10 µM (inactive)	> 10 µM (inactive)	> 10 µM (inactive)	> 10 µM (inactive)	> 10 µM (inactive)	> 10 µM (inactive)	> 10 µM (inactive)
COc1cc(CC2c3cc(OC)c(OC)cc3CCN2C)c(Oc2cc3c(cc2OC)-c2c(O)c(OC)cc4c2C(C3)N(C)CC4)cc1OC (stereo not given)	22.9 µM (inactive)	23.7 µM (inactive)	18.8 µM (inactive)	20.5 µM (inactive)	14	23.7 µM (inactive)	14.5 µM (inactive)	6.82 µM (inactive)	18.2 µM (inactive)	12.5 µM (inactive)	16.7 µM (inactive)	23.8 µM (inactive)	18.4 µM (inactive)	14.1 µM (inactive)	13.9 µM (inactive)	22.1 µM (inactive)	25.3 µM (inactive)	3.68 µM (inactive)	39.5 µM (inactive)	18.5 µM (inactive)
Cc1nn2c(=O)c([N+](=O)[O-])c(/C=C/c3ccco3)nc2s1	60.5 µM (inactive)	52.6 µM (inactive)	31.7 µM (inactive)	26.4 µM (inactive)	41.5	> 100 µM (inactive)	36.2 µM (inactive)	56.1 µM (inactive)	27.8 µM (inactive)	38.5 µM (inactive)	26.9 µM (inactive)	68.9 µM (inactive)	36.2 µM (inactive)	47.4 µM (inactive)	25.9 µM (inactive)	64.9 µM (inactive)	59 µM (inactive)	28.2 µM (inactive)	48.2 µM (inactive)	58.7 µM (inactive)
ClCc1nc2cc(Cl)ccc2o1	1.72 µM (inactive)	1.65 µM (inactive)	1.96 µM (inactive)	3.75 µM (inactive)	3.39	2.27 µM (inactive)	1.91 µM (inactive)	2.54 µM (inactive)	13.7 µM (inactive)	2.47 µM (inactive)	5.71 µM (inactive)	11.5 µM (inactive)	12.5 µM (inactive)	5.51 µM (inactive)	11.9 µM (inactive)	6.53 µM (inactive)	7.48 µM (inactive)	1.7 µM (inactive)	3.49 µM (inactive)	1.02 µM (active)
O=C(Nc1ccc(Nc2ccc3c(c2)C(=O)c2ccccc2C3=O)c2c1C(=O)c1ccccc1C2=O)c1ccccc1	> 100 µM (inactive)	> 100 µM (inactive)	14.6 µM (inactive)	> 100 µM (inactive)	7.62	44.9 µM (inactive)	> 59.7 µM (inactive)	43.7 µM (inactive)	32.4 µM (inactive)	31.3 µM (inactive)	3.05 µM (inactive)	14.1 µM (inactive)	6.47 µM (inactive)	> 23.7 µM (inactive)	> 42 µM (inactive)	> 100 µM (inactive)	> 80.5 µM (inactive)	0.989 µM (active)	38.6 µM (inactive)	> 100 µM (inactive)
O=C1CCCC2(c3ccccc3)Nc3ccccc3N12 (stereo not given)	> 100 µM (inactive)	> 100 µM (inactive)	> 100 µM (inactive)	> 100 µM (inactive)	> 100	> 100 µM (inactive)	> 100 µM (inactive)	> 100 µM (inactive)	> 100 µM (inactive)	> 100 µM (inactive)	> 100 µM (inactive)	> 100 µM (inactive)	78.5 µM (inactive)	> 100 µM (inactive)	> 100 µM (inactive)	> 100 µM (inactive)	> 100 µM (inactive)	67.8 µM (inactive)	> 100 µM (inactive)	> 100 µM (inactive)
CSc1nnc(SCc2nn3c(=O)cc(C)nc3s2)s1	> 100 µM (inactive)	> 100 µM (inactive)	> 100 µM (inactive)	> 100 µM (inactive)	> 100	> 100 µM (inactive)	> 100 µM (inactive)	> 100 µM (inactive)	> 100 µM (inactive)	> 100 µM (inactive)	> 100 µM (inactive)	> 100 µM (inactive)	> 100 µM (inactive)	> 100 µM (inactive)	> 100 µM (inactive)	> 100 µM (inactive)	> 100 µM (inactive)	> 100 µM (inactive)	> 100 µM (inactive)	> 100 µM (inactive)
COc1ccc(S(=O)(=O)N2C(=O)CCC2C(=O)NC(N)=O)cc1 (stereo not given)	> 100 µM (inactive)	> 100 µM (inactive)	> 100 µM (inactive)	> 100 µM (inactive)	> 100	> 100 µM (inactive)	> 100 µM (inactive)	> 100 µM (inactive)	> 100 µM (inactive)	> 100 µM (inactive)	> 100 µM (inactive)	> 100 µM (inactive)	> 100 µM (inactive)	> 100 µM (inactive)	> 100 µM (inactive)	> 100 µM (inactive)	> 100 µM (inactive)	> 100 µM (inactive)	> 100 µM (inactive)	> 100 µM (inactive)
